Counter-ions that a name gives are not always drawn.
Experiments:
[1] = test system: macropinocytic uptake of pathogenic bacteria; conditions: ref [10],[11]; cited from earlier work
[2] = test system: LNCaP cells expressing Abi1 Y213F; test: flow cytometric uptake of Alexa Fluor 647; assay type: cell-based; conditions: 25 μM Alexa Fluor 647 hydrazide, 2 hours
[3] = test system: NIH 3T3 cells; conditions: ref [9]; cited from earlier work
[4] = test system: macropinocytic uptake and membrane ruffles; conditions: ref [21]; cited from earlier work
[5] = test system: Rac1 activation; conditions: ref [25]; cited from earlier work

## Cc1ccc(NC(=O)c2ccc(CN3CCN(C)CC3)cc2)cc1Nc1nccc(-c2cccnc2)n1 [STI-571, Imatinib mesylate]
[1]
  macropinocytic uptake of pathogenic bacteria: inhibits macropinocytic uptake of pathogenic bacteria

## C/C1=C/C(=O)O[C@@H]2C[C@@H](CC[C@H](C)/C=C\C=C\CC1)O[C@@](O)([C@@H]1CSC(=O)N1)C2 [Latrunculin A, latrunculin A]
[2]; 0.2 μM latrunculin A, PDGF not added
  macropinocytic uptake of Alexa Fluor 647 with latrunculin A, Abi1 Y213F cells: significant decrease

## O=c1cc(N2CCOCC2)oc2c(-c3ccccc3)cccc12 [LY294002]
[3]
  macropinocytic uptake of Alexa Fluor 594: inhibit macropinocytic uptake

## COC[C@H]1OC(=O)c2coc3c2[C@@]1(C)C1=C(C3=O)[C@@H]2CCC(=O)[C@@]2(C)C[C@H]1OC(C)=O [wortmannin]
[4]
  macropinocytic uptake and formation of membrane ruffles: inhibits macropinocytic uptake and the formation of membrane ruffles but not in all cells
[3]
  macropinocytic uptake of Alexa Fluor 594: inhibit macropinocytic uptake

B1: PDGF: PDGF BB (cat # 3201), Sigma-Aldrich (protein, UniProt P01127 82-190, looked up)
Platelet-derived growth …: SLGSLTIAEPAMIAECKTRTEVFEISRRLIDRTNANFLVWPPCVEVQRCSGCCNNRNVQCRPTQVQLRPVQVRKIEIVRKKPIFKKATVTLEDHLACKCETVAAARPVT
modifications: Platelet-derived growth factor subunit B homodimer
[5]
  Rac1 activation following PDGF stimulation: enhanced Rac1 activation
[2]; 10 ng/ml PDGF
  PDGF response of Alexa Fluor 647 uptake, Abi1 Y213F cells: demonstrated PDGF response

Source: publication PMC2917628 (FEBS letters, 2010)
